Earlier results in patent publication US8691198B2, “Environmentally benign plasticizers based on derivatives of acetone” (priority 2010, dated 2014).
Like-named read-outs stand apart in the source and are kept apart here.

Assays:
[1] = degradation through oxidation forming phosphoric acid and the corresponding alcohols

Structure (SMILES): CCCCC(=O)O [Pentanoic Acid]
- LD50(rat) (rat; in vivo): 1844 mg/kg

Structure (SMILES): OCC1(O)COC(O)(CO)CO1 (centres unmarked) [1,3-dihydroxyacetone dimer]
- LD50 (oral, rat) (rat; oral): sixty thousand

Structure (SMILES): CCCC(=O)O [Butyric acid]
- LD50(rat) (rat; left half of Table 1): 2940 mg/kg

Structure (SMILES): CCCCCCCC(=O)O [Caprylic acid]
- LD50(rat) × (rat; in vivo): 600 mg/kg

Structure (SMILES): CCCCCC(=O)O [Caproic acid]
- LD50(rat) × (rat; right half of Table 1): 3000 mg/kg

Structure (SMILES): CCCCCCC(=O)O [Heptanoic Acid]
- LD50(rat) × (rat; right half of Table 1): 7000 mg/kg

Structure (SMILES): CC(CC(C)(C)C)CP(=O)(O)CC(C)CC(C)(C)C (centres unmarked) [Cyanex 272, Bis-(2,4,4-trimethylpentyl) phosphinic acid, reference compound]
- biodegradability [1]: biodegradable
- LD50(rat) (rat): 3500 mg/kg
